These results are taken from patent publication US7439350B2, “Nucleotide analogs” (Gilead Sciences, Inc., priority 1993, dated 2008).

The subject of series [1] is herpes simplex virus, type-1 and 2 (HSV-1 and -2). The following applies: cited from earlier work.
The test system of series [2] is broad-spectrum of DNA viruses. Particulars: HSV-1 and 2, VZV, TK- HSV, HCMV, SeHV, SHV-1, BHV-1, EHV-1, ASF virus, vaccinia virus, adenoviruses, MSV; cited from earlier work.
Series [3] has as its system herpes simplex virus type 1. The following applies: mice and rabbits in vivo, including herpetic keratitis caused by a TK- mutant; cited from earlier work.
Series [4] concerns varicella zoster virus (VZV). The following applies: cited from earlier work.
The test system of series [5] is vaccinia virus. Particulars: cited from earlier work.
The subject of series [6] is adenovirus. Particulars: cited from earlier work.
The subject of series [7] is intraperitoneal P388 leukemia. The following applies: murine tumor model; cited from earlier work.
Series [8] concerns uninfected cells (MA 104 cells). Briefly: Toxicity of the compounds to uninfected cells (CC50). The format is cell-based. Particulars: concentration that kills 50% of uninfected cells. Here is the method: Compounds were individually tested for activity against HSV-1 and/or HSV-2. HSV-2 (strain 414-92) was tested using MA 104 cells in the following assay protocol. 96-Well plates were seeded with 1×10^4 MA 104 cells per well using 200 μL minimal essential medium (MEM) containing 10% calf serum per well, and incubated overnight at 37° C. The compounds were dissolved in MEM Earle's Salts without serum. The medium was removed by-aspiration and 100 μL MEM Earle's Salts without serum was added to the wells. Serial 3-fold dilutions of the compounds were prepared by serial transfer of 50 μL of medium from wells containing compound to wells lacking compound. The plates were incubated 15 minutes at 37° C. followed by addition of 100 PFU/well of virus in MEM Earle's Salts with 2% fetal bovine serum. The plates were then incubated at 37° C. for three days until approximately 90% of the cells in virus infected control wells containing no compound were killed. Following incubation, medium was aspirated and the wells were washed with sterile PBS. 100 μL 0.5% crystal violet in 20% methanol was then added to the wells for 5 minutes, aspirated and the wells were washed two or three times with distilled water. 200 μL of 0.01 N HCl was added to the wells and the absorbance of each well at 595 nm was determined. […]

The subject of series [9] is HSV-2 (strain 414-92). Kind of series: Antiviral activity against HSV-2 (strain 414-92) in MA 104 cells, crystal violet readout. The format is cell-based. Particulars: HSV-2 strain 414-92, MA 104 cells, three days; concentration that inhibits virus-mediated cell killing by 50%. Here is the method: Compounds were individually tested for activity against HSV-1 and/or HSV-2. HSV-2 (strain 414-92) was tested using MA 104 cells in the following assay protocol. 96-Well plates were seeded with 1×10^4 MA 104 cells per well using 200 μL minimal essential medium (MEM) containing 10% calf serum per well, and incubated overnight at 37° C. The compounds were dissolved in MEM Earle's Salts without serum. The medium was removed by-aspiration and 100 μL MEM Earle's Salts without serum was added to the wells. Serial 3-fold dilutions of the compounds were prepared by serial transfer of 50 μL of medium from wells containing compound to wells lacking compound. The plates were incubated 15 minutes at 37° C. followed by addition of 100 PFU/well of virus in MEM Earle's Salts with 2% fetal bovine serum. The plates were then incubated at 37° C. for three days until approximately 90% of the cells in virus infected control wells containing no compound were killed. Following incubation, medium was aspirated and the wells were washed with sterile PBS. 100 μL 0.5% crystal violet in 20% methanol was then added to the wells for 5 minutes, aspirated and the wells were washed two or three times with distilled water. 200 μL of 0.01 N HCl was added to the wells and the absorbance of each well at 595 nm was determined. The results, shown in Table 6, were expressed as the IC50, the concentration (μM) that inhibits cell killing mediated by HSV-2 by 50%. […] The toxicity of the compounds were expressed as the CC50, the concentration that kills 50% of uninfected cells.

The subject of series [10] is human cytomegalovirus (HCMV). The following applies: cited from earlier work.
In series [11] the test system is HCMV. Briefly: Activity against HCMV in tissue culture (NHDF cell line). The format is cell-based. An excerpt: The title compound was synthesized using N^4-benzoyl HPMPC diethyl ester tritylated at the hydroxyl group as a starting material. The starting material was detritylated using acetic acid and then converted to N^4-benzoyl HPMPC using TMSBr. The resulting compound was converted to N^4-benzoyl cHPMPC using DCC and morpholine in pyridine.

Series [12] relates to murine cytomegalovirus (MCMV). The following applies: cited from earlier work.
For series [13], the system named is Rauscher murine leukemia virus (R-MuLV). Particulars: in vitro; cited from earlier work.
Series [14] concerns R-MuLV. Particulars: treatment of R-MuLV in mice; cited from earlier work.
For series [15], the system named is HSV II. Kind of series: Inhibition of cytopathic effects by HSV II in MA 104 cells, XTT readout. The series is classed as cell-based. Particulars: CPE determined with XTT.
The test system of series [16] is MA 104 cells. Briefly: CC50 in the HSV II / MA 104 XTT assay. The format is cell-based.
The subject of series [17] is human immunodeficiency virus (HIV). Particulars: cited from earlier work.
Series [18] relates to KOS strain of HSV-1. Kind of series: Antiviral activity against KOS strain of HSV-1 in VERO cells. The format is cell-based. The following applies: KOS strain of HSV-1, VERO cells; concentration that inhibits virus-mediated cell killing by 50%.
Series [19] concerns B16 melanoma. Particulars: murine tumor model; cited from earlier work.
Series [20] relates to herpes viruses. The following applies: in vitro; cited from earlier work.
The subject of series [21] is HSV 1. Particulars: in vivo, HSV 1 infection in mice; cited from earlier work.
Series [22] can be described thus: Oral bioavailability in monkeys.
The nature of series [23]: Incubation in rat intestinal homogenate. The format is in vitro ADME. The following applies: two phosphorus isomers separated by HPLC (one isomer / the other isomer). An excerpt:
(§1) The cHFMPC pivaloyloxymethyl ester synthesis yields a scalemic mixture at the phosphorus atom. The mixture was separated by HIPLC into the two isomers which were then exposed to an rat intestinal homogenate or to a rat intestinal wash.

Series [24] is described as follows: Incubation in rat intestinal wash. The series is classed as in vitro ADME. Particulars: both phosphorus isomers.
Description: as §1

Entries after “also recorded” stand apart in the source; their conditions may differ. Like-named read-outs stand apart in the source and are kept apart here.

With `Nc1nc2c(ncn2C[C@@H](CO)OCP(=O)(O)O)c(=O)[nH]1` [(S)-HFMPG], the “activity against HSV-1 and -2” value in series [1] is on record as “active”.

Take `Nc1ncnc2c1ncn2C[C@@H](CO)OCP(=O)(O)O` [(S)-HPMPA]: the “activity against a broad-spectrum of DNA viruses” value in series [2] was “potent and selective activity”. Further, the “efficacy against local and systemic HSV-1 infections” value in series [3] is “effective”. Further, in series [4], the “activity against VZV” value was “active”. Also, the “activity against HSV-1 and -2” value in series [1] was “active”. In addition, in [5], the “activity against vaccinia virus” value is “active”. For the same molecule, the activity against adenovirus result in series [6] is given as “active”. Besides, the “antitumor activity against P388 leukemia” value in series [7] is “active”.

On to `Nc1nc(N)c2ncn(C[C@@H](CO)OCP(=O)(O)O)c2n1` [(S)-HPMPDAP], for which the “activity against HSV-1 and -2” value in series [1] is reported as “active”.

For the molecule `Nc1ncnc2c1ncn2C[C@H]1COP(=O)(O)CO1` [(S)-cyclic HPMPA], the “activity against VZV” value in series [4] is reported as “active”. Besides, in [1], the “activity against HSV-1 and -2” value was “active”. Moreover, the “activity against vaccinia virus” value in series [5] is listed as “active”. Moreover, the activity against adenovirus entry in [6] is reported as “active”.

`CC(NP(=O)(COCCn1cnc2c(N)ncnc21)NC(C)C(=O)OCc1ccccc1)C(=O)OCc1ccccc1` (stereo not drawn) [Ex 1, bis(alanyl benzyl ester)PMEA] came in with a 50% cytotoxic concentration (CC50) in series [8] above 100 µM. In [9], this molecule displayed a half-inhibitory concentration (IC50) of 20 µM.

The molecule `Nc1ncnc2c1ncn2CCOCP(=O)(NCC(=O)OCc1ccccc1)NCC(=O)OCc1ccccc1` [Ex 4, bis(glycyl benzyl ester)PMEA] displayed a CC50 in series [8] above 100 µM. Besides, in [9], it took 60 µM to reach half-maximal inhibition (IC50).

For the molecule `Nc1ccn(CC(CO)OCP(=O)(O)O)c(=O)n1` (stereo not drawn) [HPMPC, 1-(2-phosphonomethoxy-3-hydroxypropyl)-cytosine], in series [10], the “activity against HCMV” value was “active”. The “activity against HSV-1 and -2” value in series [1] is reported as “active”. Further, in series [11] (Human betaherpesvirus 5), the IC50 was 0.4 µM.

In [11], `O=C(Nc1ccn(C[C@H]2COP(=O)(O)CO2)c(=O)n1)c1ccccc1` [N^4-benzoyl cHPMPC] returned a 50% inhibitory concentration (IC50) of 22 µM.

Consider `Nc1ncnc2c1ncn2CCOCP(=O)(O)O` [PMEA, 9-(2-phosphonylmethoxyethyl)adenine], for which, in series [10], the “activity against HCMV” value is “activity”. Moreover, the “antiviral effect in vivo against MCMV” value in series [12] is “significant antiviral effect”. The “activity against R-MuLV” value in [13] was “active”. Besides, the “activity against HSV-1 and -2” value in series [1] is recorded as “active”. Also, the “potency in vivo compared with AZT” value in series [14] was “more potent”. In addition, the IC50 in [15] was found to be 19.3 µM; in series [9] it was 21 µM. In addition, the CC50 in [16] (MA 104 cells, XTT assay of Example 4, read-out: CC50) was 2000 µM. Besides, the “antitumor activity against P388 leukemia” value in series [7] was “active”. Moreover, the “activity against HIV” value in series [17] was “active”. The EC50 in series [18] came out at 138 µM.

Consider `Nc1nc(N)c2ncn(CCOCP(=O)(O)O)c2n1` [PMEDAP], for which the “activity against HSV-1 and -2” value in series [1] is reported as “active”. Moreover, the “activity against HIV” value in series [17] is “active”.

Turning to `Nc1nc2c(ncn2CCOCP(=O)(O)O)c(=O)[nH]1` [PMEG], the “activity against HSV-1 and -2” value in [1] is listed as “active”. The “antitumor activity against P388 leukemia” value in [7] is listed as “active”. Further, in series [19], the “antitumor activity against B16 melanoma” value was “active”. Besides, in series [20], the “activity against herpes viruses” value is listed as “active”. In addition, the “potency relative to acyclovir” value in series [21] is reported as above 50 fold.

As to `Nc1ncc2ncn(CCOCP(=O)(O)O)c2n1` [PMEMAP], the “activity against HIV” value in [17] is listed as “active”.

As for `CC(C)(C)C(=O)OCOP(=O)(COCCn1cnc2c(N)ncnc21)OCOC(=O)C(C)(C)C` [bis(POM)PMEA, bis(pivaloyloxymethyl)-9-(2-phosphonylmethoxyethyl)adenine], in series [22], the oral bioavailability result is “about 25%”. For the same molecule, in [15], the IC50 turned out to be 0.5 µM. In series [16], this molecule came in with a CC50 above 10 µM.

As for `CC(C)(C)C(=O)OCOP1(=O)CO[C@@H](Cn2ccc(N)nc2=O)CO1` (stereo partly drawn) [cHFMPC pivaloyloxymethyl ester], the “metabolic fate after incubation in intestinal homogenate” value in series [23] is on record as “converted to cHPMPC; also recorded: converted to HPMPC pivaloyloxymethyl monoester”. Further, the “metabolic fate after incubation in intestinal wash” value in [24] is reported as “converted to HPMPC pivaloyloxymethyl monoester”.
